pIC50: −log10 of the molar value. Where a name gives a salt, the structure may show the parent alone. Read-outs that look alike come from different tables or passages of the source.
How the values were obtained:
[1] = Water solubility test; type: physicochemical; settings: for Solubility (%): purified water, from amount of water required for dissolution
Procedure: Experiment 2 (Water Solubility Test) Testing Method
Each sample compound was weighed in the amount shown in Table 3, to which purified water was added in 0.05 mL aliquots. The solubility (%) of the compound was determined based on the amount of water required for its dissolution.

[2] = system: interleukin-1β production; assay: Inhibitory activity against interleukin-1β production (LPS-stimulated HL-60 cells, ELISA); type: cell-based; settings: Table 1, lipopolysaccharide 10 μg/mL, culturing for 3 days, read-out: IL-1β production inhibiting activity IC50
Procedure: Inhibitory Activity Against Interleukin-1β Production
HL-60 cells were cultured for 4 days until confluence on RPMI 1640 medium with 10% fetal bovine serum (FBS) added thereto. The medium was centrifuged. The supernatant was discarded, and the cells were then suspended at 1×10^6 cells/mL on RPMI 1640 medium with 3% FBS, and lipopolysaccharide was added to give a final concentration of 10 μg/mL. The culture was inoculated at 1 mL/well to a 24-well plate. A sample compound was added at 1 μL/well, followed by culturing for 3 days. Three days later, the amount of interleukin-1β in each culture was determined by ELISA. Each IC50 value was determined by a comparison in yield with a control to which no test sample was added.

[3] = Oral absorbability test on rats and/or mice; type: in vivo; settings: orally administered to mice and/or rats, as in Experiment 3
Source text: Experiment 4 (Oral Absorbability Test on Rats and/or Mice)
In a similar manner as in Experiment 3, test compounds of Examples 23, 25, 143, 193, 245, 246, 247, 248 and 249 were orally administered to mice and/or rats to test their oral absorbability.

[4] = Oral absorbability test on rats (plasma levels by HPLC); type: in vivo; settings: male SD rats, oral 10 mg/5 mL/kg, suspension in 0.5% MC, plasma 0.25-8 hours
Procedure: Experiment 3 (Oral Absorbability Test on Rats)
The compound of Example 83 and the comparative compound 3 were suspended at 2 mg/mL with a 0.5% MC solution in mortars, respectively, and were orally administered to male SD rats at 10 mg/5 mL/kg. Upon elapsed time of 0.25, 0.5, 1, 2, 4, 6 and 8 hours after the administration, blood samples were collected and then centrifuged to provide plasma samples. The plasma levels of the respective compounds were determined by HPLC. […] The compound of Example 83 is, therefore, useful as an orally dosable medicine.

Structure (SMILES) | Solubility (%) [1] | Oral absorbability (FIGS. 2 to 6) [3] | further results
CC(C)Cn1nc(-c2ccc(F)c(F)c2)cc(CN(CCO)CCO)c1=O.Cl [Example 108, 4-N,N-bis(2-hydroxyethyl)aminomethyl-6-(3,4-difluorophenyl)-2-isobutyl-2H-pyridazin-3-one hydrochloride] | >20% |  | pIC50 [2]: 5.46
Cc1ccc(-c2cc(CN(CCO)CCO)c(=O)n(CC(C)C)n2)cc1 [Example 49, 4-N,N-bis(2-hydroxyethyl)aminomethyl-6-(4-methylphenyl)-2-isobutyl-2H-pyridazin-3-one hydrochloride] |  |  | pIC50 [2]: 5.45
COc1ccc(-c2cc(CN)c(=O)n(CC3CC3)n2)cc1F.Cl [Example 25, 4-aminomethyl-2-cyclopropylmethyl-6-(3-fluoro-4-methoxyphenyl)-2H-pyridazin-3-one hydrochloride] | 0.4% | good absorbability | 
Cc1cc(-c2cc(CN3CCN(C)CC3)c(=O)n(CC=Cc3ccc(Cl)cc3)n2)ccc1F.Cl.Cl [Example 143, 2-(4-chlorocinnamyl)-6-(4-fluoro-3-methylphenyl)-4-(4-methyl-1-piperazinyl)methyl-2H-pyridazin-3-one dihydrochloride] | 10% | good absorbability | melting point: 229.7 to 243.3 °C (dec.)
Cc1cc(-c2cc(CN3CCN(C)CC3)c(=O)n(CC(C)C)n2)ccc1F.Cl.Cl [Example 83, 6-(4-fluoro-3-methylphenyl)-2-isobutyl-4-(4-methyl-1-piperazinyl)methyl-2H-pyridazin-3-one dihydrochloride] |  |  | Oral absorption (plasma levels, FIG. 1) [4]: good absorption
COc1ccc(-c2cc(CN(C)C)c(=O)n(CC3CC3)n2)cc1F.Cl [Example 14, 2-cyclopropylmethyl-4-dimethylaminomethyl-6-(3-fluoro-4-methoxyphenyl)-2H-pyridazin-3-one hydrochloride] | 0.8% |  | pIC50 ([2]; Homo sapiens, 72 h): 5.44
COc1ccc(-c2cc(CN(CCO)CCO)c(=O)n(CC3CC3)n2)cc1F.Cl [Example 23, 4-N,N-bis(2-hydroxyethyl)aminomethyl-2-cyclopropylmethyl-6-(3-fluoro-4-methoxyphenyl)-2H-pyridazin-3-one hydrochloride] | 10% | good absorbability | pIC50 [2]: 6.48
CNC(=O)c1cc(-c2ccc(OC)c(F)c2)nn(CC2CC2)c1=O [compound 3, reference compound] | <0.001% |  | Oral absorption (plasma levels, FIG. 1) [4]: no substantial absorption; Dissolution in the added water (in words) ([1]; 100 mL purified water added): (insoluble)
CSc1ccc(-c2cc(CN3CCN(C)CC3)c(=O)n(CC3CC3)n2)cc1.Cl.Cl [Example 149, 2-cyclopropylmethyl-4-(4-methyl-1-piperazinyl)methyl-6-[4-(methylthio)phenyl]-2H-pyridazin-3-one dihydrochloride] | >10% |  | melting point: 234.6 to 239.2 °C
COc1ccc(-c2cc(CN(C)C)c(=O)n(Cc3ccc(F)c(F)c3)n2)cc1F.Cl [Example 246, 2-(3,4-difluorobenzyl)-4-dimethylaminomethyl-6-(3-fluoro-4-methoxyphenyl)-2H-pyridazin-3-one hydrochloride] | 2% | good absorbability | 
COc1ccc(-c2cc(CN3CCNCC3)c(=O)n(Cc3ccc(F)cc3)n2)cc1F.Cl.Cl [Example 193, 2-(4-fluorobenzyl)-6-(3-fluoro-4-methoxyphenyl)-4-(1-piperazinyl)methyl-2H-pyridazin-3-one dihydrochloride] | 5% | good absorbability | 
CSc1ccc(-c2cc(CN(C)C)c(=O)n(CC3CC3)n2)cc1.Cl [Example 153, 2-cyclopropylmethyl-4-dimethylaminomethyl-6-[4-(methylthio)phenyl]-2H-pyridazin-3-one hydrochloride] | 0.5% |  | pIC50 ([2]; Homo sapiens, 72 h): 6.24; melting point: 230.2 to 232.3 °C
COc1ccc(-c2cc(CN3CCN(C)CC3)c(=O)n(CC=Cc3ccc(Cl)cc3)n2)cc1F.Cl.Cl [Example 248, 2-(4-chlorocinnamyl)-6-(3-fluoro-4-methoxyphenyl)-4-(4-methyl-1-piperazinyl)methyl-2H-pyridazin-3-one dihydrochloride] | 0.06% | good absorbability | 
Cc1cc(-c2cc(CN3CCN(C)CC3)c(=O)n(CCCc3ccc(Cl)cc3)n2)ccc1F.Cl.Cl [Example 247, 2-[3-(4-chlorophenyl)propyl]-6-(4-fluoro-3-methylphenyl)-4-(4-methyl-1-piperazinyl)methyl-2H-pyridazin-3-one dihydrochloride] | 10% | good absorbability | 
COc1ccc(-c2cc(CN3CCN(C)CC3)c(=O)n(Cc3ccc(F)c(F)c3)n2)cc1F.Cl.Cl [Example 245, 2-(3,4-difluorobenzyl)-6-(3-fluoro-4-methoxyphenyl)-4-(4-methyl-1-piperazinyl)methyl-2H-pyridazin-3-one dihydrochloride] | 10% | good absorbability | 
COc1ccc(-c2cc(CN3CCN(CCO)CC3)c(=O)n(CC=Cc3ccc(Cl)cc3)n2)cc1F.Cl.Cl [Example 249, 2-(4-chlorocinnamyl)-6-(3-fluoro-4-methoxyphenyl)-4-[4-(2-hydroxyethyl)-1-piperazinyl]methyl-2H-pyridazin-3-one dihydrochloride] | 0.03% | good absorbability | 

— patent publication US7211577B2, “Water-soluble phenylpyridazine derivative and medicine containing the same” (Kowa Co., Ltd., priority 2003, dated 2007)
